# Values of other authors in patent US5183802A, “Pharmaceutical compositions for intranasal administration of calcitonin” (ISF Societa per Azioni, priority 1987, dated 1993).
# Conditions: nasal absorption of insulin; compared with sodium caprate
smiles,measurement,value
CC1(C)[C@@H](O)CC[C@]2(C)[C@H]3C(=O)C=C4[C@@H]5C[C@@](C)(C(=O)[O-])CC[C@]5(C)CC[C@@]4(C)[C@]3(C)CC[C@@H]12.[Na+] [sodium glycyrrhetinate],strength as absorption-enhancing agent for insulin,weaker than sodium caprate
